Assay results as given in patent US9815851B2, “Pyrrolo carboxamides as modulators of orphan nuclear receptor RAR-related orphan receptor-gamma (RORγ, NR1F3) activity and for the treatment of chronic inflammatory and autoimmune diseases” (PHENEX PHARMACEUTICALS AG, priority 2011, dated 2017).
Like-named read-outs stand apart in the source and are kept apart here.

How the values were obtained:
[1] = molecular target: T1, RORγ ligand binding domain (LBD) (Homo sapiens, UniProt P51449); assay: TR-FRET Activity Assay (ligand sensing, RORγ-LBD / coactivator peptide interaction, LANCE); assay type: biochemical
T1 construct: made in house; host or cells: E. coli BL-21 (BL3), vector pDEST15
T1 sequence (P51449 269-508 limits assumed): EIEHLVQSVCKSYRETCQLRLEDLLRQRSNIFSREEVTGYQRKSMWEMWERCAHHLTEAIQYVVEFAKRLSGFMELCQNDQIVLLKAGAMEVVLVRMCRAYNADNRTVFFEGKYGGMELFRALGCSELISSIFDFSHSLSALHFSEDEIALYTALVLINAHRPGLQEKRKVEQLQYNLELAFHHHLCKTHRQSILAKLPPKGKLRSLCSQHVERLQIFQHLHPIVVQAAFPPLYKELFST

[2] = molecular target: T2, RORγ (UniProt P51449); assay: RORγ Gal4 Reporter Gene Assay in 293T cells (firefly and renilla luciferase); assay type: cell-based, human
T2 sequence (P51449 1-518): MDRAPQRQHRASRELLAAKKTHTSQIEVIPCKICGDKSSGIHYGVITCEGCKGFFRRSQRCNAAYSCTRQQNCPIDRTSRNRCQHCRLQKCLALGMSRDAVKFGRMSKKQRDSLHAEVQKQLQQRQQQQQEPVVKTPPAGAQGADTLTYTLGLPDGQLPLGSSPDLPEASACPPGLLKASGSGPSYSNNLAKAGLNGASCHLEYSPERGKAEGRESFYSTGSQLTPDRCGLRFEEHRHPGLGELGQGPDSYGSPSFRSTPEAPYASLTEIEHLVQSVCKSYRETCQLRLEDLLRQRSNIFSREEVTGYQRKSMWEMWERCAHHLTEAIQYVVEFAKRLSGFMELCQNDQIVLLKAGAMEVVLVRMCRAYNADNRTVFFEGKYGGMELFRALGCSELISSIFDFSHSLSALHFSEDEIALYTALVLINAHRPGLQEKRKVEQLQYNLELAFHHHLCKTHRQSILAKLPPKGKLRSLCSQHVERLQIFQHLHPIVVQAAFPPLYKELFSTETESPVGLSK

[3] = first value of the cell FRET/FF/REN, TR-FRET activity assay, read-out: pIC50 (FRET) (converted)
[4] = second value of the cell, Gal4 reporter gene assay in 293T cells, firefly luciferase
[5] = third value of the cell, Gal4 reporter gene assay in 293T cells, renilla normalised luciferase

IC50 [1, 3] | pIC50 (FF) [2, 4] | pIC50 (REN) [2, 5] | Structure (SMILES) | IC50 [1] | pIC50 (FF) [2] | pIC50 (REN) [2]
 |  |  | Cc1c(C(=O)NCC2(C)COC2)cc(-c2cc(C(C)(C)C)cc(C(C)(C)C)c2)n1CC1CCCCC1 [1/2] | 126 nM | 6.9/7.5/7.4 | 6.9/7.5/7.4
 |  |  | Cc1c(C(=O)NCC(C)(C)C(N)=O)cc(-c2cc(C(C)(C)C)cc(C(C)(C)C)c2)n1CC1CCCCC1 [1/3] | 398 nM | 6.4/7.6/7.5 | 6.4/7.6/7.5
 |  |  | Cc1c(C(=O)NCC(C)(C)NS(C)(=O)=O)cc(-c2cc(C(C)(C)C)cc(C(C)(C)C)c2)n1CC1CCCCC1 [1/4] | 316 nM | 6.5/7.5/7.6 | 6.5/7.5/7.6
 |  |  | Cc1c(C(=O)NCC(=O)N(C)C)cc(-c2cc(C(C)(C)C)cc(C(C)(C)C)c2)n1CC1CCCCC1 [1/6] | 631 nM | 6.2/6.7/6.7 | 6.2/6.7/6.7
 |  |  | COC1CN(C(=O)c2cc(-c3cc(C(C)(C)C)cc(C(C)(C)C)c3)n(CC3CCCCC3)c2C)C1 [1/8] | 316 nM | 6.5/6.4/6.3 | 6.5/6.4/6.3
 |  |  | Cc1c(C(=O)NCCS(N)(=O)=O)cc(-c2cc(C(C)(C)C)cc(C(C)(C)C)c2)n1CC1CCCCC1 [1/9] | 316 nM | 6.5/6.6/6.7 | 6.5/6.6/6.7
 |  |  | Cc1c(C(=O)NCC2CCOCC2)cc(-c2ccc(S(=O)(=O)NC(C)(C)C)c(C(C)(C)C)c2)n1CC1CCCCC1 [1/10] | 501 nM | 6.3/7.5/7.5 | 6.3/7.5/7.5
2000 nM | 6.1 | 6.1 | Cc1c(C(=O)NCCN2CCOCC2)cc(-c2ccc(S(=O)(=O)NC(C)(C)C)c(C(C)(C)C)c2)n1CC1CCCCC1 [1/11] |  |  | 
1260 nM | 6.4 | 6.5 | Cc1c(C(=O)NC2(C#N)CC2)cc(-c2cc(C(C)(C)C)cc(C(C)(C)C)c2)n1CC1CCCCC1 [1/12] |  |  | 
1260 nM | 6.2 | 6.1 | Cc1c(C(N)=O)cc(-c2ccc(S(=O)(=O)NC(C)(C)C)c(C(C)(C)C)c2)n1CC1CCCCC1 [1/13] |  |  | 
 |  |  | Cc1c(C(=O)NC2CSC2)cc(-c2cc(C(C)(C)C)cc(C(C)(C)C)c2)n1CC1CCCCC1 [1/14] | 2000 nM | 5.7/6.5/6.6 | 5.7/6.5/6.6
3160 nM | 5.5/5.5/5.5 | 5.5/5.5/5.5 | Cc1c(C(=O)NC2CN(C(=O)OC(C)(C)C)C2)cc(-c2cc(C(C)(C)C)cc(C(C)(C)C)c2)n1CC1CCCCC1 [1/15] |  |  | 
6310 nM | 6.1 | 5.8 | Cc1c(C(=O)NC2COC2)cc(-c2cc(OCC(C)(C)C)nc(C(F)(F)F)c2)n1CC1CCCCC1 [1/16] |  |  | 
631 nM | 7.1 | 7.0 | Cc1c(C(=O)NC2COC2)cc(-c2cc(C(C)(C)C)c3c(c2)C(C)(C)CC(=O)N3)n1CC1CCCCC1 [1/18] |  |  | 
1000 nM | 6.9 | 6.9 | Cc1c(C(=O)NC2COC2)cc(-c2cc(C(C)C)c3c(c2)C(C)(C)N(C(C)C)S3(=O)=O)n1CC1CCCCC1 [1/22] |  |  | 
 |  |  | COCOc1ccc(-c2cc(C(=O)NC3COC3)c(C)n2CC2CCCCC2)cc1C(C)(C)C [1/24] | 631 nM |  | 
 |  |  | CC(C)(O)CNC(=O)c1cc(-c2ccc(S(=O)(=O)NC(C)(C)C)c(C(C)(C)C)c2)n(CC2CCCCC2)c1C(F)(F)F [1/26] | 10000 nM | 5.0/<4.7/<4.7 | 5.0/<4.7/<4.7
794 nM | 6.7 | 6.8 | COCc1c(C(=O)NCC(C)(C)O)cc(-c2ccc(S(=O)(=O)NC(C)(C)C)c(C(C)(C)C)c2)n1CC1CCCCC1 [1/28] |  |  | 
 |  |  | COCc1c(C(=O)NC2CCOCC2)cc(-c2ccc(S(=O)(=O)NC(C)(C)C)c(C(C)(C)C)c2)n1CC1CCCCC1 [1/29] | 631 nM | 6.2/7.2/7.2 | 6.2/7.2/7.2

IC50 [1, 3] | pIC50 (FF) [2, 4] | pIC50 (REN) [2, 5] | Structure (SMILES) | IC50 [1] | pIC50 (FF) [2] | pIC50 (REN) [2]
3980 nM | 6.4 | 6.2 | Cc1c(C(=O)NC2COC2)cc(-c2ccc(C(=O)NC(C)(C)C)c(C(C)(C)C)c2)n1CC1CCCCC1 [1/30] |  |  | 
2000 nM | 6.4 | 6.4 | Cc1c(C(=O)NC2COC2)cc(-c2ccc(C(=O)N(C)C(C)(C)C)c(C(C)(C)C)c2)n1CC1CCCCC1 [1/31] |  |  | 
1580 nM | 6.4 | 6.2 | Cc1c(C(=O)NC2COC2)cc(-c2ccc(C(=O)NCC(C)(C)C)c(C(C)(C)C)c2)n1CC1CCCCC1 [1/32] |  |  | 
794 nM | 6.6 | 6.5 | Cc1c(C(=O)NC2COC2)cc(-c2ccc(C(=O)N(C)CC(C)(C)C)c(C(C)(C)C)c2)n1CC1CCCCC1 [1/33] |  |  | 
1260 nM | 6.8 | 6.7 | Cc1c(C(=O)NC2COC2)cc(-c2ccc(C(=O)N3CCCCC3)c(C(C)(C)C)c2)n1CC1CCCCC1 [1/34] |  |  | 
 |  |  | COC(C)(C)CNC(=O)c1cc(-c2cc(C(C)(C)C)cc(C(C)(C)C)c2)n(CC2CCCCC2)c1C [1/35] | 126 nM | 6.9/6.9/6.9 | 6.9/6.9/6.9
 |  |  | Cc1c(C(=O)NC(C)C(C)(C)O)cc(-c2cc(C(C)(C)C)cc(C(C)(C)C)c2)n1CC1CCCCC1 (centres unmarked) [1/36] | 158 nM | 6.8/6.5/6.6 | 6.8/6.5/6.6
 |  |  | Cc1c(C(=O)NCC(C)(C)O)cc(-c2cc(C(C)(C)C)c3c(c2)C2(CCO3)CC2)n1CC1CCCCC1 [1/39] | 316 nM | 6.5/6.9/7.0 | 6.5/6.9/7.0
 |  |  | Cc1c(C(=O)NCCCCCO)cc(-c2cc(C(C)(C)C)c3c(c2)C2(CCO3)CC2)n1CC1CCCCC1 [1/40] | 251 nM | 6.6/7.5/7.6 | 6.6/7.5/7.6
 |  |  | Cc1c(C(=O)NCCN2CCOCC2)cc(-c2cc(C(C)(C)C)c3c(c2)C2(CCO3)CC2)n1CC1CCCCC1 [1/41] | 501 nM | 6.3/6.9/7.0 | 6.3/6.9/7.0
 |  |  | COC(C)(C)c1cc(-c2cc(C(=O)NC3COC3)c(C)n2CC2CCCCC2)cc(C(C)(C)C)c1 [1/107] | 794 nM |  | 
 |  |  | Cc1c(C(=O)NCC(C)(C)O)cc(-c2cc(C(=O)N(C)C(C)(C)C)cc(C(C)(C)C)c2)n1CC1CCCCC1 [15/7] | 1260 nM |  | 
 |  |  | Cc1c(C(=O)NCCCNS(C)(=O)=O)cc(-c2cc(C(C)(C)C)c3c(c2)C2(CCO3)CC2)n1CC1CCCCC1 [17/3] | 398 nM |  | 
 |  |  | Cc1c(C(=O)NCC2CNCCO2)cc(-c2cc(C(C)(C)C)c3c(c2)C2(CCO3)CC2)n1CC1CCCCC1.Cl (centres unmarked) [17/7] |  | 5.5/<4.7/<4.7 | 5.5/<4.7/<4.7
 |  |  | Cc1c(C(=O)NCC(C)(C)N)cc(-c2cc(C(C)(C)C)c3c(c2)C2(CCO3)CC2)n1CC1CCCCC1.Cl [17/27] |  | 5.6/6.3/6.5 | 5.6/6.3/6.5
 |  |  | Cc1c(C(=O)NC2(C(=O)O)CC2)cc(-c2cc(C(C)(C)C)c3c(c2)C2(CCO3)CC2)n1CC1CCCCC1 [17/50] | 3160 nM |  | 
 |  |  | Cc1c(C(=O)N2CCS(=O)(=O)CC2)cc(-c2ccc(S(=O)(=O)NC(C)(C)C)c(C(C)(C)C)c2)n1CC1CCCCC1 [17/100] | 794 nM |  | 
 |  |  | Cc1c(C(=O)N[C@H]2C[C@](C)(C(=O)O)C2)cc(-c2cc(C(C)(C)C)cc(C3(C)CC3)c2)n1CC1CCCCC1 [17/171] | 794 nM |  | 

Structure (SMILES) | IC50 [1, 3] | pIC50 (FF) [2, 4] | pIC50 (REN) [2, 5] | IC50 [1] | pIC50 (FF) [2] | pIC50 (REN) [2]
Cc1c(C(=O)NCCS(C)(=O)=O)cc(-c2cc(C(C)(C)C)cc(C(C)(C)C)c2)n1CC1CCCCC1 [1/1] | 251 nM | 6.6 | 6.7 |  |  | 
Cc1c(C(=O)NCC(N)=O)cc(-c2cc(C(C)(C)C)cc(C(C)(C)C)c2)n1CC1CCCCC1 [1/5] | 1000 nM | 6.3 | 6.2 |  |  | 
Cc1c(C(=O)N2CC(O)C2)cc(-c2cc(C(C)(C)C)cc(C(C)(C)C)c2)n1CC1CCCCC1 [1/7] | 501 nM | 6.8 | 6.8 |  |  | 
Cc1c(C(=O)NC2COC2)cc(-c2cc(C(C)(C)C)c3c(c2)C(C)(C)CC(=O)N3C)n1CC1CCCCC1 [1/19] | 1000 nM | 7.0 | 7.1 |  |  | 
CC(C)(C)NS(=O)(=O)c1ccc(-c2cc(C(=O)NCC3(O)CCOCC3)c(C(F)(F)F)n2CC2CCCCC2)cc1C(C)(C)C [1/27] | 12600 nM | < 4.7 | < 4.7 |  |  | 
Cc1c(C(=O)N2CCC(C)(O)CC2)cc(-c2cc(C(C)(C)C)cc(C(C)(C)C)c2)n1CC1CCCCC1 [1/37] | 316 nM | 6.8 | 6.8 |  |  | 
Cc1c(C(=O)NC2COC2)cc(-c2cc(C(C)(C)C)c3c(c2)C2(CCO3)CC2)n1CC1CCCCC1 [1/38] | 251 nM | 7.2 | 7.3 |  |  | 
Cc1c(C(=O)NC2COC2)cc(-c2cc(C3(C)CC3)c3c(c2)C2(CCO3)CC2)n1CC1CCCCC1 [1/42] | 251 nM | 7.5 | 7.6 |  |  | 
